For assay [1], the system named is S. aureus, ofloxacin-resistant, OFX^r. The assay can be described thus: Agar dilution MIC, aerobic bacteria (Mueller-Hinton agar). Format: cell-based, Staphylococcus aureus. The note with it: 16 strains, number in brackets = strains with that MIC, 24 hours at 37° C. Here is the method:
(§1) Determination of the antibacterial activity of 1-hydroxy-4-methyl-6-cyclohexyl-2(1H)pyridone to skin-pathogenic gram-positive and gram-negative aerobic bacteria.
(§2) The minimal inhibitory concentration (MIC) was determined in an agar dilution test in Mueller-Hinton agar. The active compound was first dissolved in dimethyl sulfoxide at 10% strength and then diluted to twice the amount in each case in equal stages with agar so that in the end effect concentrations between 128 μg/ml and 1 μg/ml were obtained. Overnight cultures of the bacterial strains to be tested were diluted with liquid medium and employed as inoculum. The bacterial suspensions (1×10^5 cfu/ml) were applied to the surface of the active compound-containing agar plates. With the exception of the methicillin-resistant strains of Staphylococcus aureus (MRSA) and Staphylococcus epidermidis (MRSE), the MIC values were read off after 24 hours at 37° C.(MRSA and MRSE: 48 hours at 30° C.).
(§3) The lowest concentration at which growth was no longer to be observed was designated as the MIC.
(§4) Using known methods, the antibiotic-resistant bacteria investigated can be isolated from patients or from hospitals in which antibiotic resistance has been found. The other bacterial species mentioned can be isolated easily by a person skilled in the art on account of their species and generic name or ordered from a strain collection.

In assay [2] the test system is Enterobacter cloacae. Described as above. Format: cell-based. The following applies: 1 strain, 24 hours at 37° C. Here is the method: as §1, §2, §3, §4
Assay [3] has as its system Streptococcus pyogenes. The assay is described as above. The format is cell-based. The note with it: 20 strains, 24 hours at 37° C. As to the method: as §1, §2, §3, §4
Assay [4] deals with Strept. equisimilis. The assay is described as above. The format is cell-based. The following applies: Streptococcus dysgalactiae; 1 strain; 24 hours at 37° C. As to the method:
as §1, §2, §3, §4

Assay [5] deals with Staphylococcus epidermidis. Described as above. The format is cell-based. The note with it: 20 strains, 24 hours at 37° C. Here is the method:
as §1, §2, §3, §4

The test system of assay [6] is Strept. agalactiae. Described as above. Format: cell-based. The note with it: Streptococcus agalactiae; 9 strains; 24 hours at 37° C. As to the method: as §1, §2, §3, §4
Assay [7] has as its system Enterobacter aerogenes. The assay is described as above. The following applies: Klebsiella aerogenes; 1 strain; 24 hours at 37° C. The format is cell-based. As to the method: as §1, §2, §3, §4
Assay [8] concerns Staphylococcus aureus. The description is as above. The format is cell-based. The following applies: 20 strains, read after 24 hours at 37° C. As to the method:
as §1, §2, §3, §4

Assay [9] has as its system S. epidermidis, methicillin-resistant, MRSE. The assay is described as above. The format is cell-based. The note with it: Staphylococcus epidermidis, 2 strains, 48 hours at 30° C. Here is the method:
as §1, §2, §3, §4

Assay [10] concerns S. epidermidis, ofloxacin-resistant, OFX^r. Described as above. The format is cell-based. The following applies: Staphylococcus epidermidis; 4 strains; 24 hours at 37° C. As to the method:
as §1, §2, §3, §4

Assay [11] deals with Strept. faecium. Described as above. The note with it: Enterococcus faecium; 1 strain; 24 hours at 37° C. The format is cell-based. As to the method:
as §1, §2, §3, §4

In assay [12] the test system is Proteus vulgaris. The description is as above. Format: cell-based. The note with it: 3 strains, number in brackets = strains with that MIC, 24 hours at 37° C. Here is the method: as §1, §2, §3, §4
Assay [13] concerns S. aureus, methicillin-resistant MRSA. Described as above. The format is cell-based. The note with it: Staphylococcus aureus, 19 strains, read after 48 hours at 30° C. Here is the method: as §1, §2, §3, §4
Assay [14] deals with Strept. durans. The description is as above. Format: cell-based. The note with it: Enterococcus durans, 24 h, 10 strains; number in brackets = strains with that MIC; 24 hours at 37° C. Here is the method: as §1, §2, §3, §4
In assay [15] the test system is Pseudomonas aeruginosa. The assay is described as above. The format is cell-based. The following applies: 5 strains, 24 hours at 37° C. Here is the method:
as §1, §2, §3, §4

Assay [16] has as its system Strept. faecium, vancomycin-resistant, VAN^r. The description is as above. Format: cell-based. The following applies: Enterococcus faecium; 1 strain; 24 hours at 37° C. Here is the method:
as §1, §2, §3, §4

Assay [17] concerns Klebsiella pneumoniae. The assay is described as above. Format: cell-based. The note with it: 2 strains, number in brackets = strains with that MIC, 24 hours at 37° C. Here is the method: as §1, §2, §3, §4
Assay [18] has as its system Escherichia coli. The description is as above. Format: cell-based. The following applies: 3 strains, 24 hours at 37° C. Here is the method:
as §1, §2, §3, §4

In assay [19] the test system is Strept. faecalis. The assay is described as above. Format: cell-based. The note with it: 3 strains, number in brackets = strains with that MIC, 24 hours at 37° C. Here is the method: as §1, §2, §3, §4
Assay [20] has as its system Propionibacterium acnes. Nature of the assay: Agar dilution MIC, anaerobic bacteria (Wilkins-Chalgren agar). The format is cell-based. Here is the method:
as §3
In vitro activity of 1-hydroxy-4-methyl-6-cyclohexyl-2(1H)pyridone against anaerobic bacteria (the testing was carried out in an agar dilution test using Wilkins-Chalgren agar (Oxoid).
(In agar dilution, organisms are placed on agar that contains the substance at set levels.)

The subject of assay [21] is Propionibacteria. The note with it: acne patients pretreated with antibiotics; cited from earlier work.
Assay [22] relates to Staphylococcus epidermidis. The following applies: acne patients pretreated with antibiotics; cited from earlier work.
For assay [23], the system named is enterococci. The following applies: isolates from various centers; cited from earlier work.

≈ marks a conversion by molar mass, not a printed value. Where two headings read alike, the source gives them in different places.

For orientation: MIC means the lowest concentration found to suppress growth. In the case of `Cc1cc(C2CCCCC2)n(O)c(=O)c1` [1-hydroxy-4-methyl-6-cyclohexyl-2(1H)pyridone], the MIC in [1] turned out to be 128 µg/mL (≈ 618 µM); in [1] (Staphylococcus aureus, 24 h, read-out: MIC) it was 64 µg/mL (≈ 309 µM); in assay [2] it was 128 µg/mL (≈ 618 µM); in assay [3], 64 µg/mL (≈ 309 µM); in assay [4], 128 µg/mL (≈ 618 µM); in assay [5], 128 µg/mL (≈ 618 µM). Moreover, the MIC in [6] was 128 µg/mL (≈ 618 µM); in [7] it was 128 µg/mL (≈ 618 µM); in assay [8] it was 64 µg/mL (≈ 309 µM); in [9], 64 µg/mL (≈ 309 µM); in [10], 64 µg/mL (≈ 309 µM); in assay [11], 128 µg/mL (≈ 618 µM). Besides, the MIC was 64 µg/mL (≈ 309 µM) in [12]; 32 µg/mL (≈ 154 µM) in assay [12] (Proteus vulgaris, 24 h, read-out: MIC); 64 µg/mL (≈ 309 µM) in assay [13]; 64 µg/mL (≈ 309 µM) in [14]; 128 µg/mL (≈ 618 µM) in assay [15]; 32 µg/mL (≈ 154 µM) in assay [16]. The MIC in [17] was found to be 128 µg/mL (≈ 618 µM); in assay [17] (Klebsiella pneumoniae, 24 h, read-out: MIC), 64 µg/mL (≈ 309 µM); in [18], 64 µg/mL (≈ 309 µM); in assay [19], 128 µg/mL (≈ 618 µM); in assay [19] (Enterococcus faecalis, 24 h, read-out: MIC), 64 µg/mL (≈ 309 µM); in assay [20] (Cutibacterium acnes, DSM20458, Strain DSM 20458, read-out: MIC) it was 32 µg/mL (≈ 154 µM). Also, the minimal inhibitory concentration (MIC) in assay [20] (Cutibacterium acnes, Strain 6919, read-out: MIC) is 32 µg/mL (≈ 154 µM); in [20] (Strain 6922), 32.0 µg/mL (≈ 154 µM); in assay [20] (Strain 15549), 32.0 µg/mL (≈ 154 µM).
In the case of `CC[C@H]1OC(=O)[C@H](C)[C@@H](O[C@H]2C[C@@](C)(OC)[C@@H](O)[C@H](C)O2)[C@H](C)[C@@H](O[C@@H]2O[C@H](C)C[C@H](N(C)C)[C@H]2O)[C@](C)(O)C[C@@H](C)C(=O)[C@H](C)[C@@H](O)[C@]1(C)O` [erythromycin], the figures for the “resistances found, share of the cases” value in [21] and in [22] were 36% and 90%, respectively.
In the case of gentamycin, in assay [23], the “resistances, share of isolates” value is listed as “up to 50%”.

Values taken from US6469033B1, “Use of 1-hydroxy-2-pyridones for the treatment of skin diseases” (Aventis Pharma Deutschland GmbH, priority 1996, dated 2002).
